Where two headings read alike, the source gives them in different places. Square brackets hold non-standard residues; d marks the D form. Peptide text beside a SMILES is read from it. Aib = CC(C)(N)C(=O)O
Columns and labels:
[1] = Serum stability, mouse serum (HPLC); format: in vitro ADME; details: 37° C., 2 and 5 hours
Source text: D-Trp-Aib serum stability—Regardless of administration route, all drugs penetrate and distribute in the body via the blood system. This milieu is based not only on cells and buffering compounds, but also on proteins, carbohydrates, lipid-protein micelles, etc. Serum proteins mainly contain carrier proteins, such as albumin, but also contain many enzymes that might treat the drug as a substrate. Thus, the susceptibility of any drug entering this environment should be evaluated. The stability of D-Trp-Aib spiked into serum was evaluated by analysis of intact sample concentrations at different time points. D-Trp-Aib (250 μg/ml PBS) was incubated with mouse (Harlan Biotech, Israel) or human (obtained from Sheba medical center, Tel Hashomer, Israel) sera or PBS (1:1, 37° C.), and aliquots were analyzed by HPLC analysis at times 0, 2 and 5 hrs. The reaction was stopped and precipitation was effected by the addition of acetonitrile (Baker, Phillipsburg N.J.) and 10% TCA. Following centrifugation (10,000 g, 5 min), Supernatant was transferred to HPLC analysis. Mean amounts of D-Trp-Aib (μg)±s.e.m. were calculated by an internal calibration curve. […]

[2] = Membrane permeability in Caco-2 cell monolayer; format: in vitro ADME; details: human, apical to basolateral, read-out: recovery at the experimental end point
Method: Membrane permeability of D-Trp-Aib as studied in Caco-2 cells—The CaCo-2 system is based on the intestinal properties of the Caco-2 cells (ATCC Accession No. HTB-37), which preserved the polarity that is seen in the intestinal wall—an apical brush border that faces the intestinal lumen and a basolateral side that faces the body. After initial culturing (37° C. in an atmosphere of 5% CO2 and 100% humidity; medium: D-glucose DMEM supplemented with 1% Lglutamine, 1% nonessential amino acids, 1% sodium pyruvate, 1% penicillinstreptomycin, and 10% fetal bovine serum), cells were harvested and grown (14 days) on polycarbonate membranes, on which they formed a tight monolayer, (width of one cell, as in the intestine) allowing specific compounds to penetrate. […] D-Trp-Aib membrane permeability of the Caco-2 cell monolayer was assessed at concentrations of 0.2 mM and 1 mM, and compared to the standards propranolol (1 mM/apical buffer-see below) and ^3H-mannitol (5.26 Ci/mmole apical buffer—see below), known to pass via transcellular and paracellular routes, respectively. […] Substance samples and Propranolol standard were analyzed using HPLC. ^3H-Mannitol samples were subjected to analysis by liquid scintillation counting in a Packard TopCount NXT. […]

hERG potassium channel = target: T1, hERG potassium channel (Homo sapiens, UniProt Q12809); assay: Functional hERG assay (patch clamp); format: cell-based
T1 construct: expressed in transfected cells
Method: Functional hERG assay—Compounds were tested in duplicate in a 3-point dose response curve on HEK cells stably expressing the hERG potassium channel (GenBank Accession No. AAD01946). Potassium current was measured using the patch clamp technique on a Molecular Devices Patch Express 7000. hERG channels were activated by 2 second pulses to +20 mV from a holding potential of −80 mV, and K^+ currents were recorded upon repolarization to −50 mV. This voltage-clamp pulse protocol was performed continuously during the experiment (vehicle control, test compound, washout, and positive control additions). An interpulse interval of 15 seconds allowed recovery from any residual inactivation. Compounds were incubated with cells between 3-8 minutes until the current reached a steady state level. After compounds were tested, they were washed out with continuous perfusion for 3 minutes, followed by application of positive control (10 uM Cisparide).

CYP450 3A4 = CYP450 3A4 (Homo sapiens, UniProt P08684); assay: Human CYP450 screen 3A4; format: in vitro ADME
Source text: For the metabolic stability assay, Human cytochrom P450 (CYP450) screens were used. The cytochrom P450 isoenzymes, which are located in the intestines, liver, lung, kidney and brain, are involved in important drug interactions. Drug metabolism occurs in two phases—Phase I involves oxidation, reduction, and hydrolysis. Phase II involves synthesis and conjugation. The CYP 450 isoenzymes are involved in Phase I oxidative reactions. CYP 450 interactions generally result from one of two processes—Induction, where a substance stimulates the synthesis of the enzyme and metabolic capacity is increased, and inhibition, where competitive binding at an enzyme's binding site(s) occurs. A drug with a high affinity for an enzyme will slow the metabolism of any low affinity drug. CYP 3A3/4 is the most abundant CYP 450 isoenzyme in humans and is responsible for the metabolism of the widest range of drugs/substances. (CYP450) screens used were 1A2, 2C9, 2C19, 2D6 and 3A4.

[3] = mouse, in vivo
Method: Animals were treated following a 4 hour fast, with water ad libitum, and fed 2 hours after administration. Thereafter, animals were sacrificed at different time intervals (5 minutes-8 hours; 3 animals in each group, at every time interval were sacrificed by sodium pentobarbital anesthesia followed by exanguination) and blood (plasma), brain, liver, kidney and pancreas were collected and later analyzed. Plasma and brain tissue samples were analyzed by high-performance liquid chromatography with tandem mass spectrometry (LC-MS/MS).
In case of brain tissue, only AUC0-4 was calculated. All parameters were calculated using the software PK solutions Version 2.0 for Noncompartmental Pharmacokinetics Data analysis (Summit Research Services, Montrose, Colo.).

[4] = inhaled or intranasal, 20 mg/kg

T1 sequence (Q12809 whole entry): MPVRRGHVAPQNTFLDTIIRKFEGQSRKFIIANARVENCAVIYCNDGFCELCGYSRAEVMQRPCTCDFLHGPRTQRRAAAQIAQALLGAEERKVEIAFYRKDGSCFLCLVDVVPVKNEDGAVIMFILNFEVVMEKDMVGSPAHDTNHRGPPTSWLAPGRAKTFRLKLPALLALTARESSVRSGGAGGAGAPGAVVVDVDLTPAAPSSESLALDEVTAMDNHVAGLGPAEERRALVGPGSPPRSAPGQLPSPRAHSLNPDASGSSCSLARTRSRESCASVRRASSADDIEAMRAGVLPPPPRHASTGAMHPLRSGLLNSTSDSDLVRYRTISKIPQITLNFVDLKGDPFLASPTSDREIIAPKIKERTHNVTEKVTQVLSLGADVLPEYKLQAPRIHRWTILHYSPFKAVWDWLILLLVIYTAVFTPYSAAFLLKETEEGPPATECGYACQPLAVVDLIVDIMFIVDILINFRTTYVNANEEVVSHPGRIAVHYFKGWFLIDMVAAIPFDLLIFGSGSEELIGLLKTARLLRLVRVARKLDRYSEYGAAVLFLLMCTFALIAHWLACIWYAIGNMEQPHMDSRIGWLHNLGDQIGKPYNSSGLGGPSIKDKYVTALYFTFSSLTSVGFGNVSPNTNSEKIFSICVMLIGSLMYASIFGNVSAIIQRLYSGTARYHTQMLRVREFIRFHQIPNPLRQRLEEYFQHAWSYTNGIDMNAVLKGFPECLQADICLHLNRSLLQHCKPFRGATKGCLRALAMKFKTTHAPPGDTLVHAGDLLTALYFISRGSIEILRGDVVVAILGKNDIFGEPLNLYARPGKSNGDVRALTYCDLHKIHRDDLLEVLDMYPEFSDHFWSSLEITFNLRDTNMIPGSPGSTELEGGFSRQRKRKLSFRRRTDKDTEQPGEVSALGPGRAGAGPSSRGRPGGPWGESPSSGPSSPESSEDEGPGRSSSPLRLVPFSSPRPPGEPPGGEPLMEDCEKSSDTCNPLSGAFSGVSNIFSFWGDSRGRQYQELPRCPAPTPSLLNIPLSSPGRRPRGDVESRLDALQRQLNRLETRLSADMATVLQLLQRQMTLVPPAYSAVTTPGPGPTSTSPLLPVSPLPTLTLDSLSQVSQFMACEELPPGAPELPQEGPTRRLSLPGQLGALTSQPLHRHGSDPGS
Sequence of CYP450 3A4 (P08684 whole entry): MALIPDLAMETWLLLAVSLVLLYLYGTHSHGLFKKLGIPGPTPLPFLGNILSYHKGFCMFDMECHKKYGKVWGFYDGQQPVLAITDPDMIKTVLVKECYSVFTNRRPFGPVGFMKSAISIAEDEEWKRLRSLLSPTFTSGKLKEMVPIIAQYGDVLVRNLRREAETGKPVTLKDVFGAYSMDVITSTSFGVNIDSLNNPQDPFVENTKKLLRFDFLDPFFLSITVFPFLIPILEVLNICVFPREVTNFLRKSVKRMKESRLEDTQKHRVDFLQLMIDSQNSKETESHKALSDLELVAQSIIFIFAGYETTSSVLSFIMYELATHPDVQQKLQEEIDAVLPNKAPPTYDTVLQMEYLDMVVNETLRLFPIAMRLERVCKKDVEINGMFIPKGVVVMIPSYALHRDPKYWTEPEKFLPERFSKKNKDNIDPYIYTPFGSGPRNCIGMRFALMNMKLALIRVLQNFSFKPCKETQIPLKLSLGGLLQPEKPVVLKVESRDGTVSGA

CC(C)(NC(=O)[C@H](N)Cc1c[nH]c2ccccc12)C(=O)O [D-Trp-Aib] (H-[dW]-[Aib]-OH)
D-Trp-Aib concentration after incubation in serum [1]: No decrease | recovery at 90 min ([2]; 0.2 mM): 37.9% | recovery at 90 min, 1 mM ([2]; 1 mM): 19.3% | effect on potassium channels (hERG potassium channel; HEK cells stably expressing hERG): did not show any effect on potassium channels | IC50 (hERG potassium channel; human, HEK cells stably expressing the hERG potassium channel, read-out: IC50 for potassium current): > 50 µM | activity in CYP450 screen (CYP450 3A4): None of the results met significance criteria | detection in brain tissue (transport through the blood-brain barrier) [3]: detected in all the assayed brain tissue samples | exposure of the brain, intranasal compared to oral administration [3]: higher exposure of the brain | Cl (area)/kg [3, 4]: 19.1947 mL/min/kg | Vd (area)/kg [3, 4]: 2.14474 L/kg | AUC (0-t) (obs area) ([3]; iv, 50 mg/kg): 2173.55 | AUCextra ([3]; iv, 50 mg/kg): 0.11% | earliest detection post-dosing (rapidly absorbed) ([3]; po): 15 min | AUC (0-t) (obs area) ([3]; po, 50 mg/kg): 453.91 | AUCextra ([3]; po, 50 mg/kg): 0.24% | Cl (area)/kg ([3]; po, 50 mg/kg): 20.4857 mL/min/kg | Vd (area)/kg ([3]; po, 50 mg/kg): 1.90581 L/kg
